The conditions of data set [1]: model parameter; Clinical Virology 3rd edition, 2009; cited from earlier work.
Data set [2] has as its system Bacteroides ovatus. It is filed as in vitro ADME. The procedure:
Frozen stocks of bacteria (Table 4) are plated on BHI blood agar and incubated at 37° C. under anaerobic conditions. Single colonies are inoculated into 4 mL pre-reduced GMM and incubated anaerobically at 37° C. for 24 h (Akkermansia muciniphila for 48 hours). BRV conversion assays are performed with the resulting dense cultures, as described above for bacterial communities.

In data set [3] the test system is BT4554. Kind of data set: B. thetaiotaomicron loss-of-function screen, bt4554 deletion and complementation. It is filed as in vitro ADME, Bacteroides thetaiotaomicron. From the text:
Two independent strategies were developed to identify the microbiome-encoded DMEs responsible for these chemical transformations. For members of the Bacteroides (the most prominent genus in the human gut microbiome in the experiments), Proteobacteria, and other genetically tractable species, Insertion Sequencing (INSeq) is used to make mapped, arrayed transposon mutant libraries as described in Goodman 2009 and Goodman 2011. From these libraries, a representative set of mutants was identified that collectively include disruptions in most non-essential genes. Each mutant was incubated with the pool of drugs metabolized by the parent species. Genes required for drug metabolism by LC-MS were identified as above.
1,352 B. thetaiotaomicron mutants were selected from an arrayed library as described in Goodman 2009 that disrupt ˜70% of its non-essential genes. Each mutant was incubated with a pool of 30 drugs metabolized by this organism. Drug levels were measured over time as above. […] FIGS. 10A-C show two examples: one of these is brivudine, an antiviral whose primary metabolite (bromovinyluracil; BVU) is dangerously toxic for patients taking 5-fluorouracil, a principal therapy for colorectal cancer. With reference to FIGS. 10A-C, transposon mutants representing disruptions in 70% of B. thetaiotaomicron (Bt) non-essential genes were screened for metabolism of 30 drugs targeted by the parent strain.
The contribution of microbial drug metabolism to serum drug and metabolite exposure was directly quantified by specifically modulating this activity in otherwise identical mice. To this end, the capacity of ten individual bacterial species was first determined, representing five major phyla that dominate the mammalian gut microbiota, for their capacity to convert BRV to BVU as illustrated in FIG. 14A. […]
Frozen stocks are re-suspended in 4 mL pre-reduced GMM and incubated anaerobically at 37° C. for 14 h. […] Substrates and reaction product are extracted and quantified by LC-MS as described below. […]

Take `O=c1[nH]c(=O)n([C@H]2C[C@H](O)[C@@H](CO)O2)cc1/C=C/Br` [BRV, Brivudine]: the “F, bioavailability of the drug” value in data set [1] was 0.3 fraction. Moreover, the “capacity to convert BRV to BVU” value in data set [2] is on record as “highest metabolic activity”. The “role of bt4554 in BRV conversion to BVU” value in data set [3] (targeted gene deletion and complementation at different expression levels) is “necessary and sufficient”. Moreover, the “conversion to BVU by mutant in BT4554” value in data set [3] (transposon mutant, recapitulated by nonpolar deletion) was “unable to convert”.

The values above are taken from patent US20210183467A1, “SYSTEM AND METHOD FOR USING MICROBIOME TO DE-RISK DRUG DEVELOPMENT” (YALE UNIVERSITY, priority 2018, published 2021).
